In patent US20240041767A1, “Mitochondria-Enriched Extracellular Vesicles” (Duquesne University of the Holy Spirit, priority 2022, published 2024):

How the values were obtained:
PGC-1α [1] = assay: PGC-1α protein expression by western blotting in Resveratrol-treated NIH/3T3 fibroblasts; assay type: cell-based, mouse; details: NIH/3T3 cells, 24 h, vs untreated cells
Method: (§1) Measurement of PGC-1α expression using western blotting (Activation of hCMEC/D3 brain endothelial cells and NIH/3T3 fibroblasts with Resveratrol and preparation of cell lysate for western blotting) hCMEC/D3 brain endothelial cells (BECs) and NIH/3T3 fibroblasts were seeded in a 24-well plate at 100,000 cells/well-seeding density in complete growth medium and cultured for 48 hours in a humidified incubator at 37° C. The cells were treated with different concentrations of Resveratrol ranging from 0.1 to 50 μM in complete growth medium for 24 h. Untreated cells were incubated with a complete growth medium and used as the control for the treatment groups. Post-treatment, the cells were washed with 1× PBS, and the cell suspension was collected in centrifuge tubes. The cell suspension was centrifuged at 300×g for 10 min at 4° C., washed with 1× PBS, and the cell pellet was lysed with 1× RIPA buffer containing 3 μg/mL aprotinin. The total protein concentration in the cell lysates was measured using a BCA assay.
(§2) Detection of PGC1α protein expression in hCMEC/D3 BECs and NIH/3T3 fibroblasts using western blotting A 40 μg cell lysate of untreated and Resveratrol treated hCMEC/D3 BECs and NIH/3T3 fibroblasts were mixed with 4× laemmli buffer and distilled water. The mixture was heated at 95° C. for 5 min using a heating block (Thermo Scientific). Denatured samples and standard molecular weight markers (ladder, 250-25 kD) were separated on a 4-10% gradient sodium dodecyl sulfate polyacrylamide gel at 120 V for 90 min using a PowerPac Basic setup (Bio-Rad Laboratories, Inc.). The gel was washed with deionized water for 30 min, and the proteins were transferred from the gel to a 0.45 μm nitrocellulose membrane using a transfer assembly (Bio-Rad Laboratories, Inc.) at 75 V and 300 mA for 90 min. Following that, the membrane was washed with tris-buffered saline pH 7.4 containing 1% tween 20 (T-TBS) for 45 min and blocked with Intercept blocking buffer (Li-COR Inc., Lincoln, NE) for an hour at room temperature. […]

PGC-1α [2] = assay: PGC-1α protein expression by western blotting in Resveratrol-treated hCMEC/D3 BECs; assay type: cell-based, human; details: hCMEC/D3 cells
Method: as §1, §2

recipient hCMEC/D3 BECs = assay: Uptake of MitoT-red-EVs into recipient hCMEC/D3 cells, flow cytometry; assay type: cell-based, human; details: cells pre-stained with 100 nM MitoT-red for 30 min
Method: Uptake of Mitotracker-labeled naïve and mito-EVs into the recipient hCMEC/D3 cells (isolation of mitochondria-labeled naïve and mito-EVs) hCMEC/D3 BECs and NIH/3T3 fibroblasts were cultured in T175 flasks to confluency. The complete growth medium was removed and cells were washed with 1× PBS. Cells were treated with 100 nM MitoTracker deep red (MitoT-red) diluted in serum-free medium for 30 min in a 37° C. humidified incubator, and following that, the cells were washed with 1× PBS. For naïve EVs, cells were incubated with serum-free medium for 48 h, whereas for mito-EVs, cells were incubated with serum-free medium containing 10 μM Resveratrol for 48 h. Post-incubation, the conditioned medium was collected into polystyrene centrifuge tubes. […] The EV protein content in MitoT-red-sEVs and MitoT-red-m/lEVs were determined using MicroBCA assay, and the samples were stored at −80° C. until further use.
Uptake of hCMEC/D3 BEC- and NIH/3T3 fibroblast-derived MitoT-red-EVs into recipient hCMEC/D3 cells using flow cytometry hCMEC/D3 BECs (P31) were seeded in a 48-well plate at a seeding density of 50,000 cells/well in complete growth medium and cultured for 48 hours in a humidified incubator at 37° C. […] For each sample, an aliquot of a 100 μL cell suspension was analyzed on an Attune N×T Flow cytometer and 10,000 events were recorded in FSC vs. SSC plots. […]

SMILES | normalized PGC-1α expression (PGC-1α [1]; 10 μM Resveratrol) | PGC-1α expression (PGC-1α [1]; 50 μM Resveratrol) | normalized PGC-1α expression (densitometry) (PGC-1α [1]; Resveratrol 0.1 to 50 μM) | PGC-1α and GAPDH protein expression (PGC-1α [2]; Resveratrol 10 μM to 50 μM, 24 h) | PGC-1α protein band densities (PGC-1α [2]; Resveratrol 0.1 and 1 μM, 24 h, vs untreated cells) | increase in normalized PGC-1α protein expression (PGC-1α [2]; Resveratrol up to 1 μM, vs untreated cells) [%] | MitoT+ve cells, positive control (recipient hCMEC/D3 BECs)
Oc1ccc(C=Cc2cc(O)cc(O)c2)cc1 [Resveratrol] | statistically significant (p<0.01) increase | considerable (p=0.07) decrease | concentration-dependent increase in PGC-1α expression | gradual and considerable decrease | slight increase | 5 | –
C[N+]1=C(/C=C/C=C/C=C2\N(Cc3ccc(CCl)cc3)c3ccccc3C2(C)C)C(C)(C)c2ccccc21.[Cl-] [MitoT-red] | – | – | – | – | – | – | about 77%
